How the values were obtained:
[1] = system: late watergrass; assay: Test Example 1: herbicidal activity, application before weed generation under submerged conditions (Table 16, symbol A); format: in vivo, late watergrass (Echinochloa oryzicola); conditions: for Herbicidal effect on A: late watergrass (grade 0-5): 320 g/ha applied herbicide; for Herbicidal effect, A: late watergrass: amount of applied herbicide 320 g/ha
Outline: (§1)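 Emulsion formulation, water-diluted to set dose, was put onto the flooded surface (4 cm depth, alluvial soil) the same day weeds were sown and 2.5-leaf rice transplanted. After 3 weeks at 25-30 °C under glass, each species was rated 0 (≤5% kill) to 5 (≥90% kill).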

[2] = system: Japanese bulrush; assay: Test Example 1: herbicidal activity, application before weed generation under submerged conditions (Table 16, symbol B); format: in vivo, Japanese bulrush (Schoenoplectus juncoides); conditions: for Herbicidal effect on B: Japanese bulrush (grade 0-5): 320 g/ha applied herbicide; for Herbicidal effect, B: Japanese bulrush: amount of applied herbicide 320 g/ha
Outline: as §1

[3] = system: oval-leafed pondweed; assay: Test Example 1: herbicidal activity, application before weed generation under submerged conditions (Table 16, symbol C); format: in vivo, oval-leafed pondweed (Monochoria vaginalis); conditions: for Herbicidal effect on C: oval-leafed pondweed (grade 0-5): 320 g/ha applied herbicide; for Herbicidal effect, C: oval-leafed pondweed: amount of applied herbicide 320 g/ha
Outline: as §1

[4] = system: late watergrass; assay: Test Example 2: herbicidal activity, application during weed generation under submerged conditions (Table 17, symbol A); format: in vivo, late watergrass (Echinochloa oryzicola); conditions: for herbicidal effect rating, A: late watergrass: AAH 320 g/ha, application during weed generation, submerged conditions
Outline: (§2)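 3-wk visual-criteria score after one water-surface dose. Emulsion formulation, water-diluted to set rate; applied at 1–2 leaf stage; alluvial soil, 4 cm standing water; seeds co-sown; greenhouse 25–30° C.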

[5] = system: Japanese bulrush; assay: Test Example 2: herbicidal activity, application during weed generation under submerged conditions (Table 17, symbol B); format: in vivo, Japanese bulrush (Schoenoplectus juncoides); conditions: for herbicidal effect rating, B: Japanese bulrush: AAH 320 g/ha, application during weed generation, submerged conditions
Outline: as §2

[6] = system: oval-leafed pondweed; assay: Test Example 2: herbicidal activity, application during weed generation under submerged conditions (Table 17, symbol C); format: in vivo, oval-leafed pondweed (Monochoria vaginalis); conditions: for herbicidal effect rating, C: oval-leafed pondweed: AAH 320 g/ha, application during weed generation, submerged conditions
Outline: as §2

[7] = system: barnyard grass; assay: Test Example 3: herbicidal effect by foliage application, Wagner pot (Table 18, symbol H); format: in vivo, barnyard grass (Echinochloa crus-galli); conditions: for herbicidal effect on barnyard grass (H): 320 g/ha
Outline: (§3)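 Plants were sown in alluvial soil held under 0.1–0.5 cm standing water and grown 14 days in a greenhouse at 25–30 °C. An emulsifiable formulation, water-diluted to the set dose, was then sprayed onto the foliage, and effects were scored three weeks later using previously defined criteria.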

[8] = system: Chinese sprangletop; assay: Test Example 3: herbicidal effect by foliage application, Wagner pot (Table 18, symbol D); format: in vivo, chinese sprangletop (Leptochloa chinensis); conditions: for herbicidal effect on Chinese sprangletop (D): 320 g/ha
Outline: as §3

[9] = system: rice flat sedge; assay: Test Example 3: herbicidal effect by foliage application, Wagner pot (Table 18, symbol E); format: in vivo, rice flat sedge (Cyperus iria); conditions: for herbicidal effect on rice flat sedge (E): 320 g/ha
Outline: as §3

[10] = system: southern crabgrass; assay: Test Example 5: herbicidal effect by foliage application, plastic box (Table 20, symbol F); format: in vivo, southern crabgrass (Digitaria ciliaris); conditions: foliage application, 320 g/ha, three weeks after application
Outline: (§4)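 Post-emergence foliar test in sterilized diluvial soil. Compound applied as water-diluted emulsion at a predetermined rate to 14-day-old plants; evaluation at three weeks.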

[11] = system: green foxtail; assay: Test Example 5: herbicidal effect by foliage application, plastic box (Table 20, symbol G); format: in vivo, green foxtail (Setaria viridis); conditions: foliage application, 320 g/ha, three weeks after application
Outline: as §4

[12] = system: barnyard grass; assay: Test Example 5: herbicidal effect by foliage application, plastic box (Table 20, symbol H); format: in vivo, barnyard grass (Echinochloa crus-galli); conditions: foliage application, 320 g/ha, three weeks after application
Outline: as §4

[13] = system: wild oat; assay: Test Example 5: herbicidal effect by foliage application, plastic box (Table 20, symbol I); format: in vivo, wild oat (Avena fatua); conditions: foliage application, 320 g/ha, three weeks after application
Outline: as §4

[14] = system: blackgrass; assay: Test Example 5: herbicidal effect by foliage application, plastic box (Table 20, symbol J); format: in vivo, blackgrass (Alopecurus myosuroides); conditions: foliage application, 320 g/ha, three weeks after application
Outline: as §4

[15] = system: Italian ryegrass; assay: Test Example 5: herbicidal effect by foliage application, plastic box (Table 20, symbol K); format: in vivo, Italian ryegrass (Lolium multiflorum); conditions: foliage application, 320 g/ha, three weeks after application
Outline: as §4

[16] = system: windgrass; assay: Test Example 5: herbicidal effect by foliage application, plastic box (Table 20, symbol L); format: in vivo, windgrass (Apera spica-venti); conditions: foliage application, 320 g/ha, three weeks after application
Outline: as §4

[17] = system: velvetleaf; assay: Test Example 5: herbicidal effect by foliage application, plastic box (Table 20, symbol M); format: in vivo, velvetleaf (Abutilon theophrasti); conditions: foliage application, 320 g/ha, three weeks after application
Outline: as §4

[18] = system: lambsquarters; assay: Test Example 5: herbicidal effect by foliage application, plastic box (Table 20, symbol O); format: in vivo, lambsquarters (Chenopodium album); conditions: foliage application, 320 g/ha, three weeks after application
Outline: as §4

[19] = system: persian speedwell; assay: Test Example 5: herbicidal effect by foliage application, plastic box (Table 20, symbol R); format: in vivo, Persian speedwell (Veronica persica); conditions: foliage application, 320 g/ha, three weeks after application
Outline: as §4

[20] = amount of applied herbicide 320 g/ha
[21] = application during weed generation under submerged conditions, amount of applied herbicide 320 g/ha

CCCC(=O)Oc1c(C)nn(C)c(=O)c1-c1c(-c2ccc(C(F)(F)F)cc2Cl)sc2ccc(F)cc12 [2-357]
Herbicidal effect on A: late watergrass (grade 0-5) [1]: 4 (Herbicidal rate of 70% or more and less than 90%)
Herbicidal effect on B: Japanese bulrush (grade 0-5) [2]: 2 (Herbicidal rate of 20% or more and less than 40%)
Herbicidal effect on C: oval-leafed pondweed (grade 0-5) [3]: 0 (Herbicidal rate of 5% or less (almost no effect))
herbicidal effect rating, A: late watergrass [4]: 2 (Herbicidal rate of 20% or more and less than 40%)
herbicidal effect rating, B: Japanese bulrush [5]: 0 (Herbicidal rate of 5% or less (almost no effect))
herbicidal effect rating, C: oval-leafed pondweed [6]: 0 (Herbicidal rate of 5% or less (almost no effect))
herbicidal effect on H: barnyard grass [7, 20]: 5 (Herbicidal rate of 90% or more (almost completely withered))
herbicidal effect on D: Chinese sprangletop [8, 20]: 3 (Herbicidal rate of 40% or more and less than 70%)
herbicidal effect on E: rice flat sedge [9, 20]: 2 (Herbicidal rate of 20% or more and less than 40%)

COc1cc(OC)cc(-c2sc3ccc(F)cc3c2-c2c(O)c(C)nn(C)c2=O)c1 [2-360]
Herbicidal effect on A: late watergrass (grade 0-5) [1]: 3 (Herbicidal rate of 40% or more and less than 70%)
Herbicidal effect on B: Japanese bulrush (grade 0-5) [2]: 2 (Herbicidal rate of 20% or more and less than 40%)
Herbicidal effect on C: oval-leafed pondweed (grade 0-5) [3]: 0 (Herbicidal rate of 5% or less (almost no effect))
herbicidal effect rating, A: late watergrass [4]: 2 (Herbicidal rate of 20% or more and less than 40%)
herbicidal effect rating, B: Japanese bulrush [5]: 0 (Herbicidal rate of 5% or less (almost no effect))
herbicidal effect rating, C: oval-leafed pondweed [6]: 0 (Herbicidal rate of 5% or less (almost no effect))
herbicidal effect on H: barnyard grass [7, 20]: 5 (Herbicidal rate of 90% or more (almost completely withered))
herbicidal effect on D: Chinese sprangletop [8, 20]: 4 (Herbicidal rate of 70% or more and less than 90%)
herbicidal effect on E: rice flat sedge [9, 20]: 3 (Herbicidal rate of 40% or more and less than 70%)

CCCC(=O)Oc1c(C)nn(C)c(=O)c1-c1c(-c2ccc(OC)cc2)sc2cc(C)c(C)cc12 [5-093]
Herbicidal effect, A: late watergrass [1]: 2 (Herbicidal rate of 20% or more and less than 40%)
Herbicidal effect, B: Japanese bulrush [2]: 0 (Herbicidal rate of 5% or less (almost no effect))
Herbicidal effect, C: oval-leafed pondweed [3]: 0 (Herbicidal rate of 5% or less (almost no effect))
herbicidal effect rating, A: late watergrass [4]: 2 (Herbicidal rate of 20% or more and less than 40%)
herbicidal effect rating, B: Japanese bulrush [5]: 0 (Herbicidal rate of 5% or less (almost no effect))
herbicidal effect rating, C: oval-leafed pondweed [6]: 0 (Herbicidal rate of 5% or less (almost no effect))
herbicidal effect on barnyard grass (H) [7]: 1 (Herbicidal rate of 5% or more and less than 20%)
herbicidal effect on Chinese sprangletop (D) [8]: 2 (Herbicidal rate of 20% or more and less than 40%)
herbicidal effect on rice flat sedge (E) [9]: 2 (Herbicidal rate of 20% or more and less than 40%)
herbicidal effect on southern crabgrass (F) [10]: 0 (Herbicidal rate of 5% or less (almost no effect))
herbicidal effect on green foxtail (G) [11]: 0 (Herbicidal rate of 5% or less (almost no effect))
herbicidal effect on barnyard grass (H) [12]: 0 (Herbicidal rate of 5% or less (almost no effect))
herbicidal effect on wild oat (I) [13]: 0 (Herbicidal rate of 5% or less (almost no effect))
herbicidal effect on blackgrass (J) [14]: 0 (Herbicidal rate of 5% or less (almost no effect))
herbicidal effect on Italian ryegrass (K) [15]: 0 (Herbicidal rate of 5% or less (almost no effect))
herbicidal effect on windgrass (L) [16]: 0 (Herbicidal rate of 5% or less (almost no effect))
herbicidal effect on velvetleaf (M) [17]: 1 (Herbicidal rate of 5% or more and less than 20%)
herbicidal effect on lambsquarters (O) [18]: 3 (Herbicidal rate of 40% or more and less than 70%)
herbicidal effect on persian speedwell (R) [19]: 0 (Herbicidal rate of 5% or less (almost no effect))

CCCC(=O)Oc1c(C)nn(C)c(=O)c1-c1c(-c2ccc(F)cc2OCC)sc2cc(C)c(C)cc12 [5-104]
Herbicidal effect, A: late watergrass [1]: 4 (Herbicidal rate of 70% or more and less than 90%)
Herbicidal effect, B: Japanese bulrush [2]: 0 (Herbicidal rate of 5% or less (almost no effect))
Herbicidal effect, C: oval-leafed pondweed [3]: 0 (Herbicidal rate of 5% or less (almost no effect))
herbicidal effect rating, A: late watergrass [4]: 4 (Herbicidal rate of 70% or more and less than 90%)
herbicidal effect rating, B: Japanese bulrush [5]: 4 (Herbicidal rate of 70% or more and less than 90%)
herbicidal effect rating, C: oval-leafed pondweed [6]: 4 (Herbicidal rate of 70% or more and less than 90%)
herbicidal effect on barnyard grass (H) [7]: 5 (Herbicidal rate of 90% or more (almost completely withered))
herbicidal effect on Chinese sprangletop (D) [8]: 5 (Herbicidal rate of 90% or more (almost completely withered))
herbicidal effect on rice flat sedge (E) [9]: 4 (Herbicidal rate of 70% or more and less than 90%)
herbicidal effect on southern crabgrass (F) [10]: 5 (Herbicidal rate of 90% or more (almost completely withered))
herbicidal effect on green foxtail (G) [11]: 4 (Herbicidal rate of 70% or more and less than 90%)
herbicidal effect on barnyard grass (H) [12]: 4 (Herbicidal rate of 70% or more and less than 90%)
herbicidal effect on wild oat (I) [13]: 4 (Herbicidal rate of 70% or more and less than 90%)
herbicidal effect on blackgrass (J) [14]: 4 (Herbicidal rate of 70% or more and less than 90%)
herbicidal effect on Italian ryegrass (K) [15]: 4 (Herbicidal rate of 70% or more and less than 90%)
herbicidal effect on windgrass (L) [16]: 4 (Herbicidal rate of 70% or more and less than 90%)
herbicidal effect on velvetleaf (M) [17]: 4 (Herbicidal rate of 70% or more and less than 90%)
herbicidal effect on lambsquarters (O) [18]: 4 (Herbicidal rate of 70% or more and less than 90%)
herbicidal effect on persian speedwell (R) [19]: 5 (Herbicidal rate of 90% or more (almost completely withered))

CCCC(=O)Oc1c(C)nn(C)c(=O)c1-c1c(-c2ccc(OCCOC)cc2)oc2ccc(C)cc12 [9-064]
Herbicidal effect, A: late watergrass [1]: 5 (Herbicidal rate of 90% or more (almost completely withered))
Herbicidal effect, B: Japanese bulrush [2]: 5 (Herbicidal rate of 90% or more (almost completely withered))
Herbicidal effect, C: oval-leafed pondweed [3]: 5 (Herbicidal rate of 90% or more (almost completely withered))
herbicidal effect grade, A: late watergrass [4, 21]: 4 (Herbicidal rate of 70% or more and less than 90%)
herbicidal effect grade, B: Japanese bulrush [5, 21]: 3 (Herbicidal rate of 40% or more and less than 70%)
herbicidal effect grade, C: oval-leafed pondweed [6, 21]: 4 (Herbicidal rate of 70% or more and less than 90%)
Herbicidal effect on H (barnyard grass), foliage application [7, 20]: 5 (Herbicidal rate of 90% or more (almost completely withered))
Herbicidal effect on D (Chinese sprangletop), foliage application [8, 20]: 1 (Herbicidal rate of 5% or more and less than 20%)
Herbicidal effect on E (rice flat sedge), foliage application [9, 20]: 5 (Herbicidal rate of 90% or more (almost completely withered))
